Measurements: patent US20220142160A1, “METHOD OF INHIBITING OR REDUCING BIOFILM IN A PETROLEUM PRODUCTION PROCESS” (KEMIRA OYJ, priority 2019, published 2022)
Values joined by “and” are separate entries in the source; they are usually repeats but may differ in a detail not shown here. Equal values may be shown once.

Key:
Type in all cases: cell-based, mixed culture of oil field bacteria
[1] = system: Sulphate Reducing Bacteria (SRB); assay: Sessile bacterial counts from biofilm scraped off glass slides, SRB; details: slide scraped day 6, 3.5% nutrient brine with dodecane, 32° C., 75 rpm
Method: (§1) A mixed culture of oil field bacteria with Sulphate Reducing Bacteria (SRB), Acid Producing Bacteria (APB), and General Heterotrophic Bacteria (GHB) that came from an oil field system and had been frozen in glycerol maintained at −80° C. was used to study the effect of the test chemical compounds on biofilm formation and control thereof.
(§2) Biofilm tests were performed in 3.5 weight-% nutrient brine (NB) solution with minimal nutrients and a mixture of dodecane isomers, which are customary in oil field production waters and storage tanks.
(§3) The oilfield bacteria consortia was inoculated into the 3.5 weight-% nutrient brine solution and allowed to acclimate overnight at 32° C. in bulk. After acclimation, the solution was divided into 250 mL Pyrex bottles to contain 200 mL of the inoculated 3.5 weight-% nutrient brine and 25 mL of dodecane. Biofilms were grown on glass slides as removable attachment surfaces. Bottles were incubated at 32° C. with a rotary shaking (75 rpm) providing medium flow in each container.
(§4) Reactors each containing 200 mL of 3.5% nutrient brine were inoculated with the oilfield bacterial consortia and 25 mL of dodecane was treated with different amounts of the chemical compounds to be tested. A nitrogen blanket was added to the top of each reactor to minimize the oxygen content and allow a beneficial environment for anaerobic bacterial growth. […]

[2] = system: Sulphate Reducing Bacteria (SRB); assay: Bacterial growth control test, planktonic bacterial counts, SRB; details: 75 ppm AMA-324 (active ingredient), sampled day 6; 3.5% nutrient brine with dodecane, 32° C., 75 rpm
Method: as §1, §2, §3, §4

[3] = system: General Heterotrophic Bacteria (GHB); assay: Bacterial growth control test, planktonic bacterial counts, GHB; details: 75 ppm AMA-324 (active ingredient), sampled day 6; 3.5% nutrient brine with dodecane, 32° C., 75 rpm
Method: as §1, §2, §3, §4

[4] = system: mixed oilfield bacterial consortia; assay: Biocidal activity on mixed oilfield bacterial consortia (bacterial counts)
Method: as §1, §2, §3, §4

[5] = system: Acid Producing Bacteria (APB); assay: Bacterial growth control test, planktonic bacterial counts, APB; details: 75 ppm AMA-324 (active ingredient), sampled day 6; 3.5% nutrient brine with dodecane, 32° C., 75 rpm
Method: as §1, §2, §3, §4

[6] = system: biofilm of mixed oilfield consortia; assay: Quantification of formed biofilm, weight gain of glass slides; parameters: average weight gain of Slides A and B: unit: mg; details: for average weight gain of Slides A and B: day 6; for Slide A weight gain: slide removed day 6, dried and weighed without further manipulation; for Slide B weight gain: slide removed day 6, scraped at 1 cm^2, then dried and weighed
Method: as §1, §2, §3
Two glass slides were added to each reactor bottle as described above and below and were removed at the end of the 6-day test for observation of biofilm accumulation, with the following considerations. For biofilm control experiments comprising biofilm removal from glass slides in 3.5% nutrient brine media inoculated with the mixed oilfield bacterial cultures and dodecane, biofilm was grown without addition of any test chemical compound to be tested in the control. In the reactors containing the test chemical compound, they were re-dosed daily for 5 days. A nitrogen blanket was added to each reactor after each dosing.
As described above, two glass slides were added to each reactor bottle. One was used for bacterial counts and the second was used to observe for biofilm accumulation. The second glass slide used to observe for growth was rinsed with deionized water, dried for 20 hours at 70° C., weighed and photographed. The weight values shown in the following tables are weights from 3 replicate reactor bottles. All weight values are given as actual measured values of the glass slides.
Table 3 presents results related to the effect on biofilm biomass of Compound A and AMA-324 dosing on the mixed oilfield consortia in 3.5 weight-% nutrient brine with dodecane at 32° C. and 75 rpm. Compound A was dosed daily for 5 days. AMA-324 was dosed at initial set-up only. Two glass slides were each weighed and added to each test container at set-up. After dosing for 5 days, at day 6, the slides were removed for analysis. Slide A was dried and weighed without further manipulation. Slide B was scrapped at 1 cm^2 with a sterile wooden stick into sterile phosphate buffer solution for bacterial counts. The scraped glass slide was then dried and weighed.

[7] = system: biofilm biomass; assay: Optical density measurements of biofilm biomass; details: data not shown
[8] = 75 ppm AMA-324 dosed at initial set-up only
[9] = 2 ppm Compound A dosed daily for 5 days
[10] = 5 ppm Compound A dosed daily for 5 days

Row | SMILES | Sessile Bacterial Counts/mL SRB bacterial ([1]; 75 ppm AMA-324 (active ingredient)) | Planktonic Bacterial Counts/mL SRB bacteria [2] | Planktonic Bacterial Counts/mL GHB bacteria [3] | biocidal activity (bacterial counts as compared to the control) ([4]; dosage of 75 ppm active ingredient alone) | Planktonic Bacterial Counts/mL APB bacteria [5] | average weight gain of Slides A and B [6, 8] | Slide A weight gain [6, 8] | Slide B weight gain [6, 8] | Sessile Bacterial Counts/mL SRB bacterial ([1]; 5.0 ppm Compound A dosed daily for 5 days) | biocidal activity (bacterial counts as compared to the control) ([4]; dosage range of 1 ppm to 5 ppm, mixed oilfield bacterial consortia, anaerobic environment) | amount of biofilm biomass by optical density measurements [7] | average weight gain of Slides A and B [6, 9] | Slide B weight gain [6, 9] | average weight gain of Slides A and B [6, 10] | Slide A weight gain [6, 10] | biofilm formation (weight of slides versus control or AMA-324) ([6]; Table 3 results, 1 to 5 ppm dosed daily for 5 days)
1 | CN1CSC(=S)N(C)C1 [AMA-324, Tetrahydro-3,5-dimethyl-2H-1,3,5-thiadiazine-2-thione, reference compound] | <0.6 Counts/mL | <0.3 Counts/mL | <0.3 Counts/mL | acted as a biocide | <0.3 Counts/mL | 1.60 and 2.05 and 1.85 | 1.35 mg and 1.95 mg and 1.6 mg | 1.85 mg and 2.15 mg and 2.1 mg |  |  |  |  |  |  |  | 
2 | Cc1ccc(S(=O)(=O)C=CC#N)cc1 [Compound A, 3-[(4-methylphenyl)sulfonyl]-2-propenenitrile] |  |  |  |  |  |  |  |  | 1.90E+07 Counts/mL | did not act as a biocidal agent | decreased the amount of biofilm biomass | 0.22 and 0.40 and 0.20 | 0.15 mg and 0.2 mg and 0.3 mg | 0.65 and 0.50 and 0.88 | 0.7 mg and 0.75 mg and 0.85 mg | very effectively reduced biofilm formation
